We go through 74 molecules from US20080300243A1, “Amide Derivatives as Ion-Channel Ligands and Pharmaceutical Compositions and Methods of Using the Same” (priority 2005, published 2008).

The target in one experiment is VR1 (Homo sapiens, UniProt Q8NER1). The experiment in a line: Calcium uptake assay, low pH (proton) stimulus. The format is cell-based. Also on record: expressed in transfected cells; host or cells: T-REx HEK 293 (Invitrogen), pcDNA5/TO vector. Conditions: 0.3 μM compound; low pH agonist; HEK 293 cells expressing hVR1.
VR1, sequence (Q8NER1 whole entry): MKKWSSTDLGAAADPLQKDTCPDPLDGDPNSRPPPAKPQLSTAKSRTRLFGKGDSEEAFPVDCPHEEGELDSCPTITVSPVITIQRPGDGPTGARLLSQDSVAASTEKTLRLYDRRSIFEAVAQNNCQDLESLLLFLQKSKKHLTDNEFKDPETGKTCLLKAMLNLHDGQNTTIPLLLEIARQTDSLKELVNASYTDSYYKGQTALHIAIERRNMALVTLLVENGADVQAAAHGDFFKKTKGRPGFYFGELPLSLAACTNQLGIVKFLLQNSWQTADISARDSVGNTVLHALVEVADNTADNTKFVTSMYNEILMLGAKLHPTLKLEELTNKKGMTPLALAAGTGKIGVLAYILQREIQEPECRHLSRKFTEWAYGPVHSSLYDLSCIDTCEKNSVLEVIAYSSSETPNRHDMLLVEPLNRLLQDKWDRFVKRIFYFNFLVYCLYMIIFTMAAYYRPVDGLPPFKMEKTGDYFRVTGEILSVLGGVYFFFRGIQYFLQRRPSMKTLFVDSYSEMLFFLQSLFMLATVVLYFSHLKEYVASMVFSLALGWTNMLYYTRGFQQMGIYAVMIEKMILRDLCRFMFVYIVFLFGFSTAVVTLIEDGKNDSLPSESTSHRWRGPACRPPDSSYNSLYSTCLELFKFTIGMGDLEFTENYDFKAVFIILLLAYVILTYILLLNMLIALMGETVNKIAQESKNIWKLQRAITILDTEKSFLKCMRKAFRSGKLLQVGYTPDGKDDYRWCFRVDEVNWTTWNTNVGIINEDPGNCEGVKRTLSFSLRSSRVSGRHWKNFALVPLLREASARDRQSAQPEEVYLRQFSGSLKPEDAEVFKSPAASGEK
For the molecule `O=C(Nc1ccc2c(c1)OCC(CO)O2)c1ccc(/C=C/C(F)(F)F)cc1` (single isomer, unassigned) [Compound 108], the “Low pH % Inhib. @ 0.3 μM” value amounted to 116%.

With `CC(C)(C)C#Cc1ccc(C(=O)Nc2cnc3ccccc3c2)cc1` [Compound 32], the “Low pH % Inhib. @ 0.3 μM” value was 101%.

With `CS(=O)(=O)OCC1COc2cc(NC(=O)c3ccc(C#CC4CCCC4)cc3)ccc2O1` (centres unmarked) [Compound 116], the “Low pH % Inhib. @ 0.3 μM” value came out at 10%.

The same experiment, now with this note: HEK293; 0.3 μM compound; low pH agonist; HEK 293 cells expressing hVR1; read-out: Low pH % Inhib. @ 0.3 μM.
Consider `CC(C)(C)/C=C/c1ccc(C(=O)Nc2ccc3c(c2)OCCO3)cc1` [Compound 1], for which the inhibition at 0.3 µM is 83%.

`CC(C)/C=C/c1ccc(C(=O)Nc2ccc3c(c2)OCCO3)cc1` [Compound 8]: the inhibition at 0.3 µM turned out to be 26%.

For `CC(C)/C=C/c1ccc(C(=O)Nc2ccc3[nH]ccc3c2)cc1` [Compound 9], the inhibition at 0.3 µM is 37%.

In the case of `CC(C)/C=C/c1ccc(C(=O)Nc2ccc3ncccc3c2)cc1` [Compound 11], the inhibition at 0.3 µM was 34%.

With `CC(C)/C=C/c1ccc(C(=O)Nc2ccc3c(c2)Cc2ccccc2-3)cc1` [Compound 13], the inhibition at 0.3 µM is 11%.

Take `C/C(=C/C(C)(C)C)c1ccc(C(=O)Nc2ccc3[nH]ccc3c2)cc1` [Compound 16]: the inhibition at 0.3 µM amounted to 21%.

For `C/C(=C/C(C)(C)C)c1ccc(C(=O)Nc2ccc3ncccc3c2)cc1` [Compound 18], the inhibition at 0.3 µM stood at 12%.

In the case of `CCn1c2ccccc2c2cc(NC(=O)c3ccc(/C(C)=C\C(C)(C)C)cc3)ccc21` [Compound 19], the inhibition at 0.3 µM turned out to be 14%.

`CC(C)(C)C#Cc1ccc(C(=O)Nc2cccc3cnccc23)cn1` [Compound 23]: the inhibition at 0.3 µM is 98%.

In the case of `CC(C)(C)C#Cc1ccc(C(=O)Nc2cnc3ccccc3c2)cc1` [Compound 24], the inhibition at 0.3 µM turned out to be 101%.

As to `Cn1ccc2cc(NC(=O)c3ccc(C#CC(C)(C)C)nc3)ccc21` [Compound 25], the inhibition at 0.3 µM came out at 105%.

In the case of `CC(C)(C)C#Cc1ccc(C(=O)Nc2ccc3c(c2)OCO3)cn1` [Compound 26], the inhibition at 0.3 µM stood at 104%.

For the molecule `CC(C)(C)C#Cc1ccc(C(=O)Nc2ccc3c(c2)OCO3)cc1` [Compound 28], the inhibition at 0.3 µM stood at 102%.

As for `CC(C)(C)C#Cc1ccc(C(=O)Nc2ccc3c(c2)OCCO3)cc1` [Compound 30], the inhibition at 0.3 µM came to 105%.

Consider `Cn1ccc2cc(NC(=O)c3ccc(C#CC(C)(C)C)cc3)ccc21` [Compound 33], for which the inhibition at 0.3 µM turned out to be 105%.

On to `Cn1ccc2cc(NC(=O)c3ccc(/C=C/C(F)(F)F)cc3)ccc21` [Compound 37], for which the inhibition at 0.3 µM came out at 17%.

In the case of `CC(C)(C)/C=C/c1ccc(C(=O)Nc2cccc3cnccc23)cc1` [Compound 40], the inhibition at 0.3 µM was determined as 86%.

With `CC(C)(C)/C=C/c1ccc(C(=O)Nc2cnc3ccccc3c2)cc1` [Compound 41], the inhibition at 0.3 µM was found to be 101%.

In the case of `Cn1ccc2cc(NC(=O)c3ccc(/C=C/C(C)(C)C)cc3)ccc21` [Compound 42], the inhibition at 0.3 µM turned out to be 98%.

As to `O=C(Nc1ccc2c(c1)OCCO2)c1ccc(C#CC(F)(F)F)cc1` [Compound 43], the inhibition at 0.3 µM was 105%.

Consider `Cn1ccc2ccc(NC(=O)c3ccc(C#CC(C)(C)C)nc3)cc21` [Compound 44], for which the inhibition at 0.3 µM is 87%.

As for `O=C(Nc1cnc2ccccc2c1)c1ccc(C#CC2CC2)cc1` [Compound 47], the inhibition at 0.3 µM is 55%.

Regarding `O=C(Nc1ccc2c(c1)OCCO2)c1ccc(C#CC2CC2)cc1` [Compound 49], the inhibition at 0.3 µM was determined as 96%.

Take `CC(C)(C)C#Cc1ccc(C(=O)Nc2ccc3c(c2)OC(F)(F)O3)cc1` [Compound 50]: the inhibition at 0.3 µM came to 5%.

Take `Cc1nc2cc(NC(=O)c3ccc(/C=C/C(F)(F)F)cc3)ccc2s1` [Compound 53]: the inhibition at 0.3 µM was 81%.

As for `O=C(Nc1ccc2sc(CO)nc2c1)c1ccc(C#CC(F)(F)F)cc1` [Compound 54], the inhibition at 0.3 µM stood at 76%.

Take `O=C(Nc1ccc2sc(CO)nc2c1)c1ccc(/C=C/C(F)(F)F)cc1` [Compound 55]: the inhibition at 0.3 µM was 101%.

For the molecule `Cc1nc2cc(NC(=O)c3ccc(C#CC(C)(C)C)cc3)ccc2s1` [Compound 56], the inhibition at 0.3 µM worked out at 104%.

On to `CC(C)(C)C#Cc1ccc(C(=O)Nc2cccc3cnccc23)c(Cl)n1` [Compound 66], for which the inhibition at 0.3 µM stood at 10%.

`CC(C)(C)C#Cc1ccc(C(=O)Nc2ccc3c(c2)N(CCN2CCOCC2)CC3(C)C)cc1` [Compound 67]: the inhibition at 0.3 µM stood at 8%.

For the molecule `CC(=O)N1CC(C)(C)c2ccc(NC(=O)c3ccc(C#CC(C)(C)C)cc3)cc21` [Compound 68], the inhibition at 0.3 µM was 140%.

Turning to `CC(C)(C)C#Cc1ccc(C(=O)Nc2ccc3c(c2)NCC3(C)C)cc1` [Compound 69], the inhibition at 0.3 µM is 103%.

Take `O=C(Nc1ccc2c(c1)OCCN2)c1ccc(C#CC(F)(F)F)cc1` [Compound 70]: the inhibition at 0.3 µM worked out at 185%.

`CC1(C)Oc2cc(NC(=O)c3ccc(/C=C/C(F)(F)F)cc3)ccc2NC1=O` [Compound 71]: the inhibition at 0.3 µM was determined as 10%.

As to `CC1(C)CNc2ccc(NC(=O)c3ccc(/C=C/C(F)(F)F)cc3)cc2O1` [Compound 72], the inhibition at 0.3 µM amounted to 124%.

Take `CN1CCOc2cc(NC(=O)c3ccc(/C=C/C(F)(F)F)cc3)ccc21` [Compound 73]: the inhibition at 0.3 µM stood at 94%.

As to `Cc1cc(C(=O)Nc2cccc3cnccc23)ccc1C#CC(F)(F)F` [Compound 75], the inhibition at 0.3 µM was determined as 102%.

On to `CC(=CC(F)(F)F)c1ccc(C(=O)Nc2cccc3cnccc23)cc1` [Compound 76], for which the inhibition at 0.3 µM was found to be 88%.

As for `Cc1cc(/C=C/C(F)(F)F)ccc1C(=O)Nc1cccc2cnccc12` [Compound 77], the inhibition at 0.3 µM worked out at 90%.

For `CN1C(=O)C(C)(C)Oc2ccc(NC(=O)c3ccc(/C=C/C(F)(F)F)cc3)cc21` [Compound 78], the inhibition at 0.3 µM was determined as 32%.

Consider `CN1CCCc2ccc(NC(=O)c3ccc(C#CC4CC4)cc3)cc21` [Compound 80], for which the inhibition at 0.3 µM came to 92%.

`CC(C)(C)C#Cc1ccc(C(=O)Nc2ccc3c(c2)OCC(CO)O3)cc1` (centres unmarked) [Compound 81]: the inhibition at 0.3 µM is 98%.

With `CC(C)(C)C#Cc1ccc(C(=O)Nc2ccc3c(c2)OC(CO)CO3)cc1` (centres unmarked) [Compound 82], the inhibition at 0.3 µM is 76%.

With `CN1C(=O)COc2ccc(NC(=O)c3ccc(/C=C/C(F)(F)F)cc3)cc21` [Compound 84], the inhibition at 0.3 µM is 45%.

Take `CN1CCCc2ccc(NC(=O)c3ccc(C#CC(C)(C)C)nc3)cc21` [Compound 85]: the inhibition at 0.3 µM stood at 34%.

For `O=C(Nc1ccc2c(c1)OC(CO)CO2)c1ccc(C#CC2CC2)cc1` (centres unmarked) [Compound 86], the inhibition at 0.3 µM was 83%.

Regarding `O=C(Nc1ccc2c(c1)OCC(CO)O2)c1ccc(C#CC2CC2)cc1` (centres unmarked) [Compound 87], the inhibition at 0.3 µM came out at 98%.

Consider `CN1CCOc2ccc(NC(=O)c3ccc(/C=C/C(F)(F)F)cc3)cc21` [Compound 88], for which the inhibition at 0.3 µM was determined as 48%.

With `CC(C)(C)C#Cc1ccc(C(=O)Nc2cccc3cnccc23)nc1` [Compound 91], the inhibition at 0.3 µM was found to be 21%.

For `O=C(Nc1ccc2c(c1)S(=O)(=O)C=C2)c1ccc(/C=C/C(F)(F)F)cc1` [Compound 92], the inhibition at 0.3 µM came out at 71%.

For the molecule `O=C(Nc1ccc2c(c1)OCC(CO)O2)c1ccc(/C=C/C(F)(F)F)cc1` (centres unmarked) [Compound 97], the inhibition at 0.3 µM amounted to 101%.

On to `CN1CCCc2ccc(NC(=O)c3ccc(C#CC4CCCC4)cc3)cc21` [Compound 98], for which the inhibition at 0.3 µM stood at 78%.

As for `C/C(=C\C(F)(F)F)c1ccc(C(=O)Nc2ccc3c(c2)OCCO3)cc1` [Compound 99], the inhibition at 0.3 µM was found to be 94%.

For the molecule `O=C(Nc1ccc2c(c1)OCCO2)c1ccc(C#CC2CCCC2)cc1` [Compound 100], the inhibition at 0.3 µM turned out to be 42%.

In the case of `O=C(Nc1cccc2cnccc12)c1ccc(C#CC2CCCC2)cc1` [Compound 101], the inhibition at 0.3 µM is 94%.

Consider `C/C(=C\c1ccc(C(=O)Nc2ccc3c(c2)OCCO3)cc1)C(F)(F)F` [Compound 102], for which the inhibition at 0.3 µM was 91%.

For the molecule `O=C(Nc1ccc2c(c1)NCCO2)c1ccc(C#CC2CCCC2)cc1` [Compound 106], the inhibition at 0.3 µM is 5%.

For the molecule `CC(C)(O)COc1cc(C(=O)Nc2ccc3c(c2)OCCO3)ccc1C#CC1CC1` [Compound 110], the inhibition at 0.3 µM turned out to be 1%.

For `CC1=Cc2c(cccc2NC(=O)c2ccc(/C=C/C(F)(F)F)cc2)NN1` [Compound 113], the inhibition at 0.3 µM came out at 9%.

Turning to `Cc1cc2c(NC(=O)c3ccc(/C=C/C(F)(F)F)cc3)cccc2cn1` [Compound 114], the inhibition at 0.3 µM stood at 90%.

For the molecule `O=C(Nc1ccc2nccnc2c1)c1ccc(/C=C/C(F)(F)F)cc1` [Compound 115], the inhibition at 0.3 µM was 90%.

Turning to `O=C(Nc1ccc2c(c1)OCCN2)c1ccc(C#CC2CCCC2)cc1` [Compound 117], the inhibition at 0.3 µM is 98%.

Turning to `COc1cc(/C=C\C(F)(F)F)ccc1C(=O)Nc1ccc2c(c1)OCCN2` [Compound 120], the inhibition at 0.3 µM was found to be 19%.

For `COc1cc(/C=C\C(F)(F)F)ccc1C(=O)Nc1ccc2c(c1)OCCO2` [Compound 121], the inhibition at 0.3 µM was determined as 19%.

For `COc1cc(C#CC(C)(C)C)ccc1C(=O)Nc1ccc2c(c1)OCCN2` [Compound 128], the inhibition at 0.3 µM came to 12%.

Consider `O=C(Nc1ccc2c(c1)OCCN2)c1c(F)cc(C#CC2CC2)cc1F` [Compound 130], for which the inhibition at 0.3 µM came out at 104%.

As for `O=C(Nc1ccc2c(c1)OCCN2)c1ccc(/C=C\C(F)(F)F)cc1F` [Compound 135], the inhibition at 0.3 µM came out at 29%.

Regarding `O=C(Nc1cc2c(cc1Cl)NCCO2)c1ccc(/C=C/C(F)(F)F)cc1` [Compound 136], the inhibition at 0.3 µM worked out at 50%.

For the molecule `CC(C)(C)C#Cc1ccc(C(=O)Nc2ccc3c(c2)OCCN3)c(F)c1` [Compound 137], the inhibition at 0.3 µM turned out to be 103%.

In the case of `Cc1cc(C#CC2CCCC2)ccc1C(=O)Nc1ccc2c(c1)OCCN2` [Compound 139], the inhibition at 0.3 µM stood at 95%.

As to `Cc1cc(C#CC2CCCC2)ccc1C(=O)Nc1ccc2c(c1)OCCO2` [Compound 140], the inhibition at 0.3 µM was 33%.
